Laboratory results taken from PubChem BioAssay AID2060503 (Molecular Pharmacology Branch, DTP, NCI, 2025).

Test system: 817829-284-R-J1-PDC complex spheroids, viability
Test: Anticancer human tumor 817829-284-R-J1-PDC patient-derived colon adenocarcinoma cell line growth inhibition [GQUAD]
Settings: second compound 3.16 µM; first compound 0.0999 µM; active compounds read low
Method in brief: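 Viability of tumor cells grown as complex spheroids with endothelial and stromal cells, exposed to drug combinations. Top concentration at or near clinical Cmax (else 10 microM), diluted in half-log increments.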
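Note: spheroids exposed to agents for 7 days before readout; percent viability relative to DMSO vehicle control taken as 100%.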

Work on `CCc1c2c(nc3ccc(O)cc13)-c1cc3c(c(=O)n1C2)COC(=O)[C@]3(O)CC` + Cc1[nH]c2ccc(F)cc2c1-c1nc2c3cccnc3c3ncccc3c2[nH]1 yielded a viability, T/C of 5.28%.

Same assay, conditions: second compound 3.16 µM; first compound 0.1 µM; active compounds read low

Point of comparison: `C=CC(=O)N1CCN(c2nc(=O)n(-c3c(C)ccnc3C(C)C)c3nc(-c4c(O)cccc4F)c(F)cc23)C(C)C1` (configuration not stated) + Cc1[nH]c2ccc(F)cc2c1-c1nc2c3cccnc3c3ncccc3c2[nH]1, viability, T/C 99.3%. Against it:
- CC(C)n1c(=O)n(C)c2cnc3cc(F)c(-c4ccc(OCCCN5CCCCC5)nc4)cc3c21 + Cc1[nH]c2ccc(F)cc2c1-c1nc2c3cccnc3c3ncccc3c2[nH]1 — lower, 90.9%
- COc1cc(C2c3cc4c(cc3C(OC3OC5COC(C)OC5C(O)C3O)C3COC(=O)C23)OCO4)cc(OC)c1O (configuration not stated) + Cc1[nH]c2ccc(F)cc2c1-c1nc2c3cccnc3c3ncccc3c2[nH]1 — lower, 54.1%
- COc1cccc2c1C(=O)c1c(O)c3c(c(O)c1C2=O)CC(O)(C(=O)CO)CC3OC1CC(N)C(O)C(C)O1 (configuration not stated) + Cc1[nH]c2ccc(F)cc2c1-c1nc2c3cccnc3c3ncccc3c2[nH]1 — lower, 26.3%
- Cc1cccc(N(C)C(=O)C2C(O)CCN2c2nc(C)cc(C(F)(F)F)c2C#N)c1 (configuration not stated) + Cc1[nH]c2ccc(F)cc2c1-c1nc2c3cccnc3c3ncccc3c2[nH]1 — lower, 96.1%
- O=C(c1cc(Cc2n[nH]c(=O)c3ccccc23)ccc1F)N1CCN(C(=O)C2CC2)CC1 + Cc1[nH]c2ccc(F)cc2c1-c1nc2c3cccnc3c3ncccc3c2[nH]1 — lower, 98.5%

Same assay, conditions: second compound 3.16 µM; first compound 0.316 µM; active compounds read low

Point of comparison: `CCc1c2c(nc3ccc(O)cc13)-c1cc3c(c(=O)n1C2)COC(=O)[C@]3(O)CC` + Cc1[nH]c2ccc(F)cc2c1-c1nc2c3cccnc3c3ncccc3c2[nH]1, viability, T/C 2.61%. Against it:
- C=CC(=O)N1CCN(c2nc(=O)n(-c3c(C)ccnc3C(C)C)c3nc(-c4c(O)cccc4F)c(F)cc23)C(C)C1 (configuration not stated) + Cc1[nH]c2ccc(F)cc2c1-c1nc2c3cccnc3c3ncccc3c2[nH]1 — higher, 75.7%
- CC(C)n1c(=O)n(C)c2cnc3cc(F)c(-c4ccc(OCCCN5CCCCC5)nc4)cc3c21 + Cc1[nH]c2ccc(F)cc2c1-c1nc2c3cccnc3c3ncccc3c2[nH]1 — higher, 64.6%
- COc1cc(C2c3cc4c(cc3C(OC3OC5COC(C)OC5C(O)C3O)C3COC(=O)C23)OCO4)cc(OC)c1O (configuration not stated) + Cc1[nH]c2ccc(F)cc2c1-c1nc2c3cccnc3c3ncccc3c2[nH]1 — higher, 16.8%
- COc1cccc2c1C(=O)c1c(O)c3c(c(O)c1C2=O)CC(O)(C(=O)CO)CC3OC1CC(N)C(O)C(C)O1 (configuration not stated) + Cc1[nH]c2ccc(F)cc2c1-c1nc2c3cccnc3c3ncccc3c2[nH]1 — higher, 18.9%
- Cc1cccc(N(C)C(=O)C2C(O)CCN2c2nc(C)cc(C(F)(F)F)c2C#N)c1 (configuration not stated) + Cc1[nH]c2ccc(F)cc2c1-c1nc2c3cccnc3c3ncccc3c2[nH]1 — higher, 82.5%
- O=C(c1cc(Cc2n[nH]c(=O)c3ccccc23)ccc1F)N1CCN(C(=O)C2CC2)CC1 + Cc1[nH]c2ccc(F)cc2c1-c1nc2c3cccnc3c3ncccc3c2[nH]1 — higher, 97.3%

Same assay, conditions: second compound 3.16 µM; first compound 1 µM; active compounds read low

Point of comparison: `C=CC(=O)N1CCN(c2nc(=O)n(-c3c(C)ccnc3C(C)C)c3nc(-c4c(O)cccc4F)c(F)cc23)C(C)C1` (configuration not stated) + Cc1[nH]c2ccc(F)cc2c1-c1nc2c3cccnc3c3ncccc3c2[nH]1, viability, T/C 68.2%. Against it:
- CC(C)n1c(=O)n(C)c2cnc3cc(F)c(-c4ccc(OCCCN5CCCCC5)nc4)cc3c21 + Cc1[nH]c2ccc(F)cc2c1-c1nc2c3cccnc3c3ncccc3c2[nH]1 — higher, 78%
- COc1cc(C2c3cc4c(cc3C(OC3OC5COC(C)OC5C(O)C3O)C3COC(=O)C23)OCO4)cc(OC)c1O (configuration not stated) + Cc1[nH]c2ccc(F)cc2c1-c1nc2c3cccnc3c3ncccc3c2[nH]1 — lower, 15.2%
- COc1cccc2c1C(=O)c1c(O)c3c(c(O)c1C2=O)CC(O)(C(=O)CO)CC3OC1CC(N)C(O)C(C)O1 (configuration not stated) + Cc1[nH]c2ccc(F)cc2c1-c1nc2c3cccnc3c3ncccc3c2[nH]1 — lower, 7.18%
- Cc1cccc(N(C)C(=O)C2C(O)CCN2c2nc(C)cc(C(F)(F)F)c2C#N)c1 (configuration not stated) + Cc1[nH]c2ccc(F)cc2c1-c1nc2c3cccnc3c3ncccc3c2[nH]1 — higher, 99.2%
- O=C(c1cc(Cc2n[nH]c(=O)c3ccccc23)ccc1F)N1CCN(C(=O)C2CC2)CC1 + Cc1[nH]c2ccc(F)cc2c1-c1nc2c3cccnc3c3ncccc3c2[nH]1 — higher, 93.8%

Same assay, conditions: second compound 3.16 µM; first compound 3.16 µM; active compounds read low

Point of comparison: `O=C(c1cc(Cc2n[nH]c(=O)c3ccccc23)ccc1F)N1CCN(C(=O)C2CC2)CC1` + Cc1[nH]c2ccc(F)cc2c1-c1nc2c3cccnc3c3ncccc3c2[nH]1, viability, T/C 54.5%. Against it:
- C=CC(=O)N1CCN(c2nc(=O)n(-c3c(C)ccnc3C(C)C)c3nc(-c4c(O)cccc4F)c(F)cc23)C(C)C1 (configuration not stated) + Cc1[nH]c2ccc(F)cc2c1-c1nc2c3cccnc3c3ncccc3c2[nH]1 — lower, 51.7%
- CC(C)n1c(=O)n(C)c2cnc3cc(F)c(-c4ccc(OCCCN5CCCCC5)nc4)cc3c21 + Cc1[nH]c2ccc(F)cc2c1-c1nc2c3cccnc3c3ncccc3c2[nH]1 — higher, 69.8%
- COc1cc(C2c3cc4c(cc3C(OC3OC5COC(C)OC5C(O)C3O)C3COC(=O)C23)OCO4)cc(OC)c1O (configuration not stated) + Cc1[nH]c2ccc(F)cc2c1-c1nc2c3cccnc3c3ncccc3c2[nH]1 — lower, 17.8%
- COc1cccc2c1C(=O)c1c(O)c3c(c(O)c1C2=O)CC(O)(C(=O)CO)CC3OC1CC(N)C(O)C(C)O1 (configuration not stated) + Cc1[nH]c2ccc(F)cc2c1-c1nc2c3cccnc3c3ncccc3c2[nH]1 — lower, 0.69%
- Cc1cccc(N(C)C(=O)C2C(O)CCN2c2nc(C)cc(C(F)(F)F)c2C#N)c1 (configuration not stated) + Cc1[nH]c2ccc(F)cc2c1-c1nc2c3cccnc3c3ncccc3c2[nH]1 — higher, 98.2%

Same assay, conditions: second compound 3.16 µM; first compound 10 µM; active compounds read low

Point of comparison: `Cc1cccc(N(C)C(=O)C2C(O)CCN2c2nc(C)cc(C(F)(F)F)c2C#N)c1` (configuration not stated) + Cc1[nH]c2ccc(F)cc2c1-c1nc2c3cccnc3c3ncccc3c2[nH]1, viability, T/C 96.7%. Against it:
- C=CC(=O)N1CCN(c2nc(=O)n(-c3c(C)ccnc3C(C)C)c3nc(-c4c(O)cccc4F)c(F)cc23)C(C)C1 (configuration not stated) + Cc1[nH]c2ccc(F)cc2c1-c1nc2c3cccnc3c3ncccc3c2[nH]1 — lower, 32.4%
- CC(C)n1c(=O)n(C)c2cnc3cc(F)c(-c4ccc(OCCCN5CCCCC5)nc4)cc3c21 + Cc1[nH]c2ccc(F)cc2c1-c1nc2c3cccnc3c3ncccc3c2[nH]1 — lower, 7.73%
- COc1cc(C2c3cc4c(cc3C(OC3OC5COC(C)OC5C(O)C3O)C3COC(=O)C23)OCO4)cc(OC)c1O (configuration not stated) + Cc1[nH]c2ccc(F)cc2c1-c1nc2c3cccnc3c3ncccc3c2[nH]1 — lower, 3.63%
- COc1cccc2c1C(=O)c1c(O)c3c(c(O)c1C2=O)CC(O)(C(=O)CO)CC3OC1CC(N)C(O)C(C)O1 (configuration not stated) + Cc1[nH]c2ccc(F)cc2c1-c1nc2c3cccnc3c3ncccc3c2[nH]1 — lower, 0.27%
- O=C(c1cc(Cc2n[nH]c(=O)c3ccccc23)ccc1F)N1CCN(C(=O)C2CC2)CC1 + Cc1[nH]c2ccc(F)cc2c1-c1nc2c3cccnc3c3ncccc3c2[nH]1 — lower, 35.6%

Same assay, conditions: second compound 10 µM; first compound 0.000999 µM; active compounds read low

`CCc1c2c(nc3ccc(O)cc13)-c1cc3c(c(=O)n1C2)COC(=O)[C@]3(O)CC` + Cc1[nH]c2ccc(F)cc2c1-c1nc2c3cccnc3c3ncccc3c2[nH]1 showed a viability, T/C of 6.96%.

Same assay, conditions: second compound 10 µM; first compound 0.00316 µM; active compounds read low

In the case of `CCc1c2c(nc3ccc(O)cc13)-c1cc3c(c(=O)n1C2)COC(=O)[C@]3(O)CC` + Cc1[nH]c2ccc(F)cc2c1-c1nc2c3cccnc3c3ncccc3c2[nH]1, the viability, T/C is reported as 7.65%.

Same assay, conditions: second compound 10 µM; first compound 0.00999 µM; active compounds read low

Compound `CCc1c2c(nc3ccc(O)cc13)-c1cc3c(c(=O)n1C2)COC(=O)[C@]3(O)CC` + Cc1[nH]c2ccc(F)cc2c1-c1nc2c3cccnc3c3ncccc3c2[nH]1 has a viability, T/C of 4.74%.

Same assay, conditions: second compound 10 µM; first compound 0.0316 µM; active compounds read low

Point of comparison: `C=CC(=O)N1CCN(c2nc(=O)n(-c3c(C)ccnc3C(C)C)c3nc(-c4c(O)cccc4F)c(F)cc23)C(C)C1` (configuration not stated) + Cc1[nH]c2ccc(F)cc2c1-c1nc2c3cccnc3c3ncccc3c2[nH]1, viability, T/C 11.3%. Against it:
- CC(C)n1c(=O)n(C)c2cnc3cc(F)c(-c4ccc(OCCCN5CCCCC5)nc4)cc3c21 + Cc1[nH]c2ccc(F)cc2c1-c1nc2c3cccnc3c3ncccc3c2[nH]1 — higher, 65.2%
